Data published in PubChem BioAssay (NCI).
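Values below derive from 48-hour exposures of cells grown in 96-well plates, with endpoints linearly interpolated between the two concentrations bracketing the appropriate inhibition level. TGI: total growth inhibition.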

What was measured:
Assay in all cases: inhibition of tumour cell growth, NCI panel, 48 h
786-0 renal = tested on: 786-0 renal
A549 NSCLC = tested on: A549 NSCLC
ACHN renal = tested on: ACHN renal
BT-549 breast = tested on: BT-549 breast
CAKI-1 renal = tested on: CAKI-1 renal
CCRF-CEM leukemia = tested on: CCRF-CEM leukemia
COLO 205 colon = tested on: COLO 205 colon
DU-145 prostate = tested on: DU-145 prostate
HCC-2998 colon = tested on: HCC-2998 colon
HCT-116 colon = tested on: HCT-116 colon
HCT-15 colon = tested on: HCT-15 colon
HL-60(TB) leukemia = tested on: HL-60(TB) leukemia
HOP-62 NSCLC = tested on: HOP-62 NSCLC
HOP-92 NSCLC = tested on: HOP-92 NSCLC
HS 578T breast = tested on: HS 578T breast
IGROV1 ovarian = tested on: IGROV1 ovarian
KM12 colon = tested on: KM12 colon
LOX IMVI melanoma = tested on: LOX IMVI melanoma
M14 melanoma = tested on: M14 melanoma
MALME-3M melanoma = tested on: MALME-3M melanoma
MCF7 breast = tested on: MCF7 breast
MDA-MB-231 breast = tested on: MDA-MB-231 breast
MDA-MB-435 = tested on: MDA-MB-435
MDA-N = tested on: MDA-N
MOLT-4 leukemia = tested on: MOLT-4 leukemia
NCI-H226 lung = tested on: NCI-H226 lung
NCI-H23 lung = tested on: NCI-H23 lung
NCI-H460 lung = tested on: NCI-H460 lung
NCI-H522 lung = tested on: NCI-H522 lung
NCI/ADR-RES ovarian = tested on: NCI/ADR-RES ovarian
OVCAR-3 ovarian = tested on: OVCAR-3 ovarian
OVCAR-4 ovarian = tested on: OVCAR-4 ovarian
OVCAR-5 ovarian = tested on: OVCAR-5 ovarian
OVCAR-8 ovarian = tested on: OVCAR-8 ovarian
PC-3 prostate = tested on: PC-3 prostate
RPMI-8226 leukemia = tested on: RPMI-8226 leukemia
SF-268 CNS = tested on: SF-268 CNS
SF-295 CNS = tested on: SF-295 CNS
SF-539 CNS = tested on: SF-539 CNS
SK-MEL-2 melanoma = tested on: SK-MEL-2 melanoma
SK-MEL-28 melanoma = tested on: SK-MEL-28 melanoma
SK-MEL-5 melanoma = tested on: SK-MEL-5 melanoma
SK-OV-3 ovarian = tested on: SK-OV-3 ovarian
SN12C renal = tested on: SN12C renal
SNB-19 CNS = tested on: SNB-19 CNS
SNB-75 CNS = tested on: SNB-75 CNS
SR leukemia = tested on: SR leukemia
SW-620 colon = tested on: SW-620 colon
T-47D breast = tested on: T-47D breast
TK-10 renal = tested on: TK-10 renal
U251 CNS = tested on: U251 CNS
UACC-257 melanoma = tested on: UACC-257 melanoma
UACC-62 melanoma = tested on: UACC-62 melanoma
UO-31 renal = tested on: UO-31 renal
A498 renal = tested on: A498 renal
EKVX NSCLC = tested on: EKVX NSCLC
HT29 colon = tested on: HT29 colon
K-562 leukemia = tested on: K-562 leukemia
RXF 393 renal = tested on: RXF 393 renal

Measured: TGI

COC(=O)CCCc1ccc2c(c1)CCC2
not listed: A498 renal | EKVX NSCLC | HT29 colon | K-562 leukemia | RXF 393 renal
> 100 µM: all other assays above

S=C1c2cc(Cl)ccc2NC(=NC2CCCC2)C2CSCN12 (stereo not given)
not listed: HL-60(TB) leukemia
> 100 µM: all other assays above

CC(C)(C)NCC(O)COc1cccc2[nH]c(C#N)cc12 (stereo not given)
not listed: CCRF-CEM leukemia | HCC-2998 colon | HOP-92 NSCLC | LOX IMVI melanoma | NCI-H460 lung | SNB-75 CNS | UACC-257 melanoma | K-562 leukemia | RXF 393 renal
> 100 µM: all other assays above

Cc1nc2c(=O)[nH]c(=O)nc-2n(CCO)c1C
not listed: HL-60(TB) leukemia
> 100 µM: all other assays above
